From ChEMBL document CHEMBL1136755, “Mapping property distributions of molecular surfaces: algorithm and evaluation of a novel 3D quantitative structure-activity relationship technique” (J Med Chem, 2003) come the findings set out here.

In test [1] the target is T1, Muscarinic acetylcholine receptor M2 (Sus scrofa, UniProt P06199).
T1 sequence (P06199 whole entry): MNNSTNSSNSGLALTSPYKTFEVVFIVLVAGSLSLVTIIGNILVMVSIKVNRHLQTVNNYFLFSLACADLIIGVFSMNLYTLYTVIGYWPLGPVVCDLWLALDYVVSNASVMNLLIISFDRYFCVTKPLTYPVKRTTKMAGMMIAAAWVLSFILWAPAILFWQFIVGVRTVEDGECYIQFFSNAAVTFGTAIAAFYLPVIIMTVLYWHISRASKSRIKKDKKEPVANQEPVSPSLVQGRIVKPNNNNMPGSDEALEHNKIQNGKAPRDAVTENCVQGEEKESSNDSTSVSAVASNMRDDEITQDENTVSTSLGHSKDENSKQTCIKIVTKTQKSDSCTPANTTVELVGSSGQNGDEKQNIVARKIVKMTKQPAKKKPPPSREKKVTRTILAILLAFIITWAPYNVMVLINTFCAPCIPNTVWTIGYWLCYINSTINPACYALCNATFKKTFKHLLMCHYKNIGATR
The test is described as follows: Ability to dissociate radioligand [3H]NMS from muscarinic acetylcholine receptor M2 of porcine heart.

The test system of another test is Oryctolagus cuniculus. The test is described as follows: Eye irritation potential accessed using Draize in vivo rabbit eye irritation test. Type of test: functional.
The target in test [2] is T2, Corticosteroid-binding globulin (Homo sapiens) (UniProt P08185).
T2 sequence (whole entry): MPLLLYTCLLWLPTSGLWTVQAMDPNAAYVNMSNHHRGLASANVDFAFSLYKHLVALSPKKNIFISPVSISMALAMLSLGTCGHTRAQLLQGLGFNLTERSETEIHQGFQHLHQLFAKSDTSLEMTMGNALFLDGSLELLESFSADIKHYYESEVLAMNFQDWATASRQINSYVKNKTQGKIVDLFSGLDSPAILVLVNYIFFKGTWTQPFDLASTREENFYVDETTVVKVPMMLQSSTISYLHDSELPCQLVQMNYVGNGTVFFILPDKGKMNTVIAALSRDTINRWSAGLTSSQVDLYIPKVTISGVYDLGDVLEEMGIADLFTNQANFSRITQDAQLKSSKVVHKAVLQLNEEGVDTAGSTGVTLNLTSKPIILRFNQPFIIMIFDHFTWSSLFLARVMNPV
Description: Binding affinity towards corticosteroid-binding globulin (CBG)

In the case of `CCCCCC[N+](C)(C)CCCN1C(=O)c2ccccc2C1=O`, the EC50 in test [1] was 54000 nM.
In turn, `CC(C)O` [ISOPROPYL ALCOHOL] had an MES in the test on Oryctolagus cuniculus of 2.34.
As for `C[N+](C)(CCCCCC[N+](C)(C)CCCN1C(=O)CC2c3ccccc3C(C1=O)c1ccccc12)CCCN1C(=O)c2ccccc2C1=O`, a half-maximal effect in test [1] (EC50) was put at 398 nM.
In turn, `CC(=O)[C@H]1CC[C@H]2[C@@H]3CCC4=CC(=O)CC[C@]4(C)[C@H]3C(=O)C[C@]12C` returned a Log K in test [2] of 6.78.
As for `CC(=O)CC(C)C` [METHYL ISOBUTYL KETONE], the MES with Oryctolagus cuniculus is reported as 0.59.
Molecule `CC(=O)[C@@]1(O)CC[C@H]2[C@@H]3CCC4=CC(=O)CC[C@]4(C)[C@H]3CC[C@@]21C` returned a Log K in test [2] of 7.74.
For the molecule `CC(=O)[C@H]1[C@H](C)C[C@H]2[C@@H]3CCC4=CC(=O)CC[C@]4(C)[C@H]3CC[C@@]21C`, the Log K in test [2] was found to be 7.12.
In turn, `CCCCOC(C)=O` [ACETIC ACID BUTYL ESTER] had an MES with Oryctolagus cuniculus of 0.99.
Take `CCCC(C)C`: in the test on Oryctolagus cuniculus, the MES came out at 0.26.
The molecule `C[C@]12CC[C@H]3[C@@H](CCC4=CC(=O)CC[C@@]43C)[C@@H]1CC[C@@H]2C(=O)CO` registered a Log K in test [2] of 7.65.
`CC1CCCC1` [METHYLCYCLOPENTANE]: the MES in the test on Oryctolagus cuniculus is given as 0.41.
As to `C[C@]12CC[C@@H]3c4ccc(O)cc4CC[C@H]3[C@@H]1C[C@@H](O)[C@@H]2O`, the Log K in test [2] stood at 5.
For `C[N+](C)(CCCCCCC[N+](C)(C)CCCN1C(=O)[C@H]2CCCC[C@H]2C1=O)CCCN1C(=O)[C@H]2CCCC[C@H]2C1=O`, in test [1], the EC50 was 4500 nM.
Turning to `CCCCCC(C)=O`, the MES in the test with Oryctolagus cuniculus is reported as 2.26.
As for `CC[N+](C)(C)CCCCCC[N+](C)(C)CCCN1C(=O)c2ccccc2C1=O`, the response in test [1] was half-maximal at 10000 nM (EC50).
`C[N+](C)(CCCCCC[N+](C)(C)CCCN1c2ccccc2C(=O)NC1c1ccccc1)CCCN1c2ccccc2C(=O)NC1c1ccccc1` (stereo unspecified) had an EC50 in test [1] of 741 nM.
For `C[N+](C)(CCCCCC[N+](C)(C)CCCN1C(=O)c2cc3ccccc3cc2C1=O)CCCN1C(=O)c2ccccc2C1=O`, in test [1], the EC50 was 148 nM.
Consider `CCCCO` [BUTYL ALCOHOL], for which the MES in the test on Oryctolagus cuniculus amounted to 5.47.
For the molecule `OC1CCCCC1` [CYCLOHEXANOL], the MES in the test with Oryctolagus cuniculus amounted to 8.29.
Turning to `CC(=O)[C@H]1CC[C@H]2[C@@H]3CCC4=CC(=O)CC[C@]4(C)[C@H]3CC[C@]12C`, in test [2], the Log K was determined as 7.38.
Regarding `CCCCCCCCCCCC` [DODECANE], in the test with Oryctolagus cuniculus, the MES came out at 0.45.
`CC(=O)[C@@]1(O)[C@H](O)C[C@H]2[C@@H]3CCC4=CC(=O)CC[C@]4(C)[C@H]3CC[C@@]21C` came in with a Log K in test [2] of 6.25.
As to `CCc1cccc(C)c1`, the MES in the test on Oryctolagus cuniculus is reported as 0.32.
The molecule `CC(O)CO` (stereo unspecified) [PROPYLENE GLYCOL] yielded an MES in the test on Oryctolagus cuniculus of 0.1.
Regarding `C[N+](C)(CCCCCCC[N+](C)(C)CCCN1C(=O)c2ccccc2C1=O)CCCN1C(=O)c2ccccc2C1=O`, the EC50 in test [1] is 389 nM.
The same measure, in the same setting: the result for `C[N+](C)(CCCCCC[N+](C)(C)CCCN1C(=O)c2cccnc2C1=O)CCCN1C(=O)c2ccccc2C1=O` reads 2340 nM.
Molecule `C[C@]12CC[C@H]3[C@@H](CCC4=CC(=O)CC[C@@]43C)[C@@H]1CC[C@@H]2O` gave a Log K in test [2] of 6.72.
On the same count and under the same terms, then `C[C@]12CCC(=O)C=C1CC[C@@H]1[C@@H]2CC[C@]2(C)C(=O)CC[C@@H]12`, with 5.76.
As to `C=Cc1ccccc1` [STYRENE], the MES in the test on Oryctolagus cuniculus was determined as 0.77.
Still for that read-out and setting: the result for `COC(C)=O` [ACETIC ACID METHYL ESTER] reads 3.14.
In test [2], `C[C@]12C[C@H](O)[C@H]3[C@@H](CCC4=CC(=O)CC[C@@]43C)[C@@H]1CC[C@@H]2C(=O)CO` had a Log K of 7.88.
Molecule `CCOC(=O)C(C)(C)C` displayed an MES with Oryctolagus cuniculus of 0.63.
The same measure, in the same setting: then `COC(=O)C(C)(C)C`, with 0.36; and `CC(C)c1cccc(C(C)C)c1`, with 0.38.
With `CC(=O)[C@H]1CC[C@H]2[C@@H]3CCC4=CC(=O)CC[C@@H]4[C@H]3CC[C@]12C`, the Log K in test [2] was 6.82.
Regarding `CCC(C)c1ccccc1` (stereo unspecified), in the test with Oryctolagus cuniculus, the MES stood at 0.31.
In the test on Oryctolagus cuniculus, `CC(C)CO` [ISOBUTANOL] returned an MES of 6.44.
In test [2], `CC(=O)[C@H]1CC[C@H]2[C@@H]3CC=C4C[C@@H](O)CC[C@]4(C)[C@H]3CC[C@]12C` came in with a Log K of 5.25.
`C/C1=C/C=C\C(C)CCC1` (stereo unspecified) registered an MES with Oryctolagus cuniculus of 0.44.
Same read-out and setting: then `CCOC(=O)C(C)C(C)=O` (stereo unspecified), with 2.55.
`C[N+](C)(CCCCCC[N+](C)(C)CCCN1C(=O)c2ccccc2C1=O)CCCN1C(=O)CCC1=O` had an EC50 in test [1] of 9770 nM.
`Cc1ccccc1` [TOLUENE] gave an MES with Oryctolagus cuniculus of 0.96.
Same read-out and setting: the result for `C=CCCC=C` reads 0.55.
`C[C@]12CC[C@H](O)C[C@@H]1CC[C@@H]1[C@@H]2CC[C@]2(C)[C@@H](O)CC[C@@H]12`: the Log K in test [2] is 5.
For `CCCCC(CC)CO` (stereo unspecified), in the test with Oryctolagus cuniculus, the MES is on record as 7.82.
Still for that read-out and setting: the result for `CCC(C)(C)C(=O)O` [DIMEBUTIC ACID] reads 5.59.
Same read-out and setting: the result for `CCCC(C)CC` (stereo unspecified) reads 0.1; that for `CCOCC(=O)O`, 2.03; that for `O=[N+]([O-])c1ccc(F)cc1F`, 0.4.
`C[C@]12C=CC(=O)C=C1CC[C@@H]1[C@@H]2[C@@H](O)C[C@@]2(C)[C@H]1CC[C@]2(O)C(=O)CO`: the Log K in test [2] stood at 7.51.
As for `CC(C)=O` [ACETONE], the MES in the test with Oryctolagus cuniculus stood at 4.83.
In turn, `C[C@]12CC[C@@H]3c4ccc(O)cc4CC[C@H]3[C@@H]1CC[C@@H]2O` yielded a Log K in test [2] of 5.
As to `OCC(O)CO` [GLYCERIN], the MES in the test on Oryctolagus cuniculus was determined as 0.12.
Same read-out and setting: the result for `Cc1ccc(C)cc1` [P-XYLENE] reads 1.1; that for `O=C1c2ccccc2C(=O)N1CCCCBr`, 0.19.
The same measure, in the same setting: the result for `CCCCOCCO` [BUTOXYETHANOL] reads 8.99.
Regarding `C[C@@H]1C[C@@]2(C)C(=CC1=O)CC[C@H]1[C@@H]3CC[C@](O)(C(=O)CO)[C@@]3(C)C[C@H](O)[C@@]12F`, the Log K in test [2] worked out at 5.8.
In the test on Oryctolagus cuniculus, `C1=C\CCCCCC/1` [CYCLOOCTENE] displayed an MES of 0.43.
Take `C[C@]12C[C@@H](O)[C@H]3[C@@H](CCC4=CC(=O)CC[C@@]43C)[C@@H]1CC[C@@H]2C(=O)CO`: the Log K in test [2] is 7.2.
In the test on Oryctolagus cuniculus, `CCC(C)=O` [BUTANONE] showed an MES of 4.48.
Still for that read-out and setting: the result for `CCCCCCO` [1-HEXANOL] reads 8.13.
In test [2], `C[C@]12CC[C@H](O)CC1=CC[C@@H]1[C@@H]2CC[C@]2(C)C(=O)CC[C@@H]12` gave a Log K of 5.
As to `C[C@]12CCC(=O)C=C1CC[C@@H]1[C@@H]2CC[C@@]2(C)[C@H]1CC[C@]2(O)C(=O)CO`, the Log K in test [2] was determined as 7.88.
Still for that read-out and setting: then `CC(=O)OCC(=O)[C@@]1(O)CC[C@H]2[C@@H]3CCC4=CC(=O)CC[C@]4(C)[C@H]3[C@@H](O)C[C@@]21C`, with 7.55; and `CC(=O)[C@@]1(O)CC[C@H]2[C@@H]3CC[C@@H]4C[C@H](O)CC[C@]4(C)[C@H]3CC[C@@]21C`, with 5.
As to `Nc1ccc(F)cc1`, the MES in the test with Oryctolagus cuniculus is 6.62.
`C=CCCCCCCC=C` yielded an MES with Oryctolagus cuniculus of 0.37.
For the molecule `CCOC(C)=O` [ETHYL ACETATE], the MES in the test on Oryctolagus cuniculus came out at 1.47.
In test [2], `C[C@]12CCC(=O)C=C1CC[C@@H]1[C@@H]2[C@@H](O)C[C@@]2(C)[C@H]1CC[C@]2(O)C(=O)CO` returned a Log K of 7.88.
The same measure, in the same setting: the result for `C[C@]12CC[C@H]3[C@@H](CCC4=CC(=O)CC[C@@H]43)[C@@H]1CC[C@@H]2O` reads 6.14; that for `C[C@]12CCC(=O)C=C1CC[C@@H]1[C@@H]2C(=O)C[C@@]2(C)[C@H]1CC[C@]2(O)C(=O)CO`, 6.89.

What is called EC50 is the concentration that produces a half-maximal response. A higher EC50 goes with weaker potency.
